Molecular target: T1, human SCD1 (hSCD-1) (Homo sapiens, UniProt O00767)
T1 construct: made in house; host or cells: baculovirus/Sf9
T1 sequence (O00767 1-359): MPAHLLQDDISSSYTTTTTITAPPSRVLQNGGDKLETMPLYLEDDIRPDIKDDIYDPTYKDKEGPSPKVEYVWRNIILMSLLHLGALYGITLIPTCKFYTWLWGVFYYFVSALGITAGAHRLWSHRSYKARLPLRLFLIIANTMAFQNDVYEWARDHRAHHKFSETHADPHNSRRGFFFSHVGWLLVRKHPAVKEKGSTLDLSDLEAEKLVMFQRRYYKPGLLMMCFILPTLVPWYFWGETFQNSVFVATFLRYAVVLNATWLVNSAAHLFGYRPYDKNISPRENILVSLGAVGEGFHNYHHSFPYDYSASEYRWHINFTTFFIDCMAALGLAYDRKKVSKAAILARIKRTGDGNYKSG
Assay: SCD enzyme activity assay, reconstituted human SCD1 (hSCD-1)
Assay type: biochemical
Details: human SCD1, conversion of [3H]-stearoyl-CoA
Description: The potency of compounds of formula I against the stearoyl-CoA desaturase was determined by measuring the conversion of radiolabeled stearoyl-CoA to oleoyl-CoA using rat liver microsome or human SCD1 (hSCD-1) following previously published procedures with some modifications (Joshi, et al., J. Lipid Res., 18: 32-36 (1977); Talmo, et al., Anal. Biochem, 29: 300-304 (1969)). Liver microsome was prepared from male Wistar or Sprague Dawley rats on a high carbohydrate diet for 3 days (LabDiet #5803, Purina). The livers were homogenized (1:10 w/v) in a buffer containing 250 mM sucrose, 1 mM EDTA, 5 mM DTT and 50 mM Tris-HCl (pH 7.5). After a 100,000×g centrifugation for 60 min, the liver microsome pellet was suspended in a buffer containing 100 mM sodium phosphate, 20% glycerol, 2 mM DTT, and stored at −78° C. Human SCD1 desaturase system was reconstituted using human SCD1 from a baculovirus/Sf9 expression system, cytochrome B5 and cytochrome B5 reductase. Typically, test compound in 2 μL DMSO was incubated for 15 min at room temperature with 180 μL of the SCD enzyme in a buffer containing 100 mM Tris-HCl (pH 7.5), ATP (5 mM), Coenzyme-A (0.1 mM), Triton X-100 (0.5 mM) and NADH (2 mM). The reaction was initiated by the addition of 20 μL of [^3H]-stearoyl-CoA (final concentration=2 μM, radioactivity concentration=1 μCi/mL). After 10 min, the reaction mixture (80 μL) was mixed with a calcium chloride/charcoal aqueous suspension (100 μL charcoal (10% w/v) plus 25 μL CaCl2 (2N). After centrifugation to precipitate the radioactive fatty acid species, tritiated water released from 9,10-[^3H]-stearoyl-CoA by the SCD enzyme was quantified on a scintillation counter.

Row | SMILES | IC50
1 | CS(=O)(=O)c1cnc2[nH]c(-c3ccc(-c4ccccc4F)cc3)nc2c1 | 0.113 µM
2 | CS(=O)(=O)c1ccc2nc(-c3ccc(-c4ccccc4F)nc3)[nH]c2c1 | 0.027 µM
3 | CS(=O)(=O)c1ccc2[nH]c(-c3ccc(-c4cccs4)cc3)nc2c1 | 0.231 µM

The next compounds have a lower IC50 than those just listed; values first:

Row | IC50 | SMILES
4 | 0.026 µM | CS(=O)(=O)c1ccc2nc(-c3ccc(-c4cccc(F)c4)cc3)[nH]c2c1
5 | 0.013 µM | CS(=O)(=O)c1ccn2cc(-c3ccc(-c4cccc(Cl)c4)cc3)nc2c1

From patent publication US20110021532A1, “NOVEL SUBSTITUTED HETEROAROMATIC COMPOUNDS AS INHIBITORS OF STEAROYL-COENZYME A DELTA-9 DESATURASE” (Merck Frosst Canada Ltd., priority 2008, published 2011)
